Measurements published in the supplement of paper PMC10307832.

Key:
Assay in all cases: relative viability (nuclei count vs DMSO), 5 days (fraction); higher = more cells survive
[1] = compound: CC[C@H](Nc1ncnc2[nH]cnc12)c1nc2cccc(F)c2c(=O)n1-c1ccccc1 [Idelalisib] + O=C(CCCCCCC(=O)Nc1ccccc1)NO [Vorinostat] (partner 1 µM)
In short: (§1)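 Relative viability was taken as the ratio of nuclei in treated wells to nuclei in vehicle wells. Lung cancer cell lines in 1536-well plates received compounds by pin tool one day after seeding, either one drug alone or a fixed anchor-drug dose plus five library-drug doses (not always all listed) in √10 steps. Nuclei were counted on 4× images after 5 days of treatment, and values are medians of duplicate plates.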

[2] = compound: Nc1nc2[nH]cc(CCc3ccc(C(=O)N[C@@H](CCC(=O)O)C(=O)O)cc3)c2c(=O)[nH]1 [Pemetrexed] + COc1cc2c(Oc3ccc(NC(=O)C4(C(=O)Nc5ccc(F)cc5)CC4)cc3F)ccnc2cc1OCCCN1CCOCC1 [Foretinib] (partner 0.25 µM)
In short: as §1

[3] = compound: Nc1nc2[nH]cc(CCc3ccc(C(=O)N[C@@H](CCC(=O)O)C(=O)O)cc3)c2c(=O)[nH]1 [Pemetrexed] + N=C(N)NC(=N)NCCc1ccccc1 [Phenformin] (partner 250 µM)
In short: as §1

[4] = compound: CC[C@H](Nc1ncnc2[nH]cnc12)c1nc2cccc(F)c2c(=O)n1-c1ccccc1 [Idelalisib] + CC1(C)CCC(c2ccc(Cl)cc2)=C(CN2CCN(c3ccc(C(=O)NS(=O)(=O)c4ccc(N[C@H](CCN5CCOCC5)CSc5ccccc5)c(S(=O)(=O)C(F)(F)F)c4)cc3)CC2)C1 [Navitoclax] (partner 0.5 µM)
In short: as §1

Cell Line	relative viability ([1]; first compound 0.04 µM)	relative viability ([1]; first compound 0.1265 µM)	relative viability ([1]; first compound 0.4 µM)	relative viability ([1]; first compound 1.265 µM)	relative viability ([1]; first compound 4 µM)	relative viability ([2]; first compound 0.002 µM)	relative viability ([2]; first compound 0.006325 µM)	relative viability ([2]; first compound 0.02 µM)	relative viability ([2]; first compound 0.06325 µM)	relative viability ([2]; first compound 0.2 µM)	relative viability ([3]; first compound 0.002 µM)	relative viability ([3]; first compound 0.006325 µM)	relative viability ([3]; first compound 0.02 µM)	relative viability ([3]; first compound 0.06325 µM)	relative viability ([3]; first compound 0.2 µM)	relative viability ([4]; first compound 0.04 µM)	relative viability ([4]; first compound 0.1265 µM)	relative viability ([4]; first compound 0.4 µM)	relative viability ([4]; first compound 1.265 µM)	relative viability ([4]; first compound 4 µM)
NCI-H650	0.495	0.449	0.369	0.419	0.421	1.07	0.97	1.08	0.988	1.02	0.406	0.468	0.457	0.428	0.469					
IA-LM	0.607	0.907	0.913	1.02	0.944	1.05	1.1	1.05	1.14	0.829						0.905	0.856	1.01	1.08	0.919
A-427	0.921	0.889	0.833	0.901	0.874	0.994	1.02	1.08	0.961	0.929	0.298	0.42	0.377	0.308	0.355	0.939	0.91	1.01	1.06	0.811
NCI-H2347	0.639	0.572	0.511	0.624	0.403	0.841	1.06	1.19	0.739	0.558	0.203	0.369	0.484	0.412	0.387	0.89	0.667	0.737	0.767	0.618
NCI-H1792											0.311	0.368	0.297	0.252	0.272	0.464	0.587	0.617	0.667	0.645
SW 900	0.442	0.548	0.407	0.514	0.441	0.908	0.77	0.874	0.688	0.588	0.759	0.578	0.763	0.548	0.477					
NCI-H1623						0.794	0.831	0.861	0.848	0.769	0.575	0.588	0.564	0.627	0.598					
LCLC-103H	0.864	0.926	0.664	0.798	0.58	0.719	0.666	0.833	0.725	0.802	0.316	0.333	0.364	0.351	0.3					
HCC-44	1.19	1.08	1.12	1.22	1.12						0.129	0.23	0.187	0.224	0.207	1.01	0.925	0.871	1.07	0.927
NCI-H358	0.643	0.63	0.588	0.567	0.593	0.624	0.747	0.56	0.223	0.149	0.334	0.359	0.31	0.166	0.132					
ABC-1	1.01	1.13	0.751	1.03	1.39	1.26	0.927	1.01	0.992	1.08	0.283	0.24	0.26	0.283	0.249					
EBC-1						0.117	0.112	0.107	0.0993	0.0915						0.413	0.409	0.359	0.442	0.212
NCI-H1703						0.304	0.283	0.415	0.345	0.369						1.15	1.05	0.922	1.13	0.501
NCI-H1563						0.822	0.87	1.01	0.909	0.919	0.745	0.649	0.67	0.651	0.64					
NCI-H1299						1.08	1.15	1.12	1.09	0.595						1.04	1.01	1.07	1.12	1.08
A549						0.935	0.902	1.08	1.02	0.925	0.161	0.155	0.169	0.161	0.14	1.5	1.23	1.22	1.33	1.02
NCI-H522	0.964	0.846	0.929	0.901	0.956						0.739	0.593	0.77	0.692	0.583					
NCI-H1648	0.395	0.483	0.357	0.224	0.31															
NCI-H661	0.81	0.779	0.828	0.876	0.814	1.03	0.987	1.01	0.985	0.974	0.288	0.28	0.286	0.276	0.273					
NCI-H2342	0.801	0.736	0.689	0.664	0.736	0.997	1.08	0.94	1.05	0.915	0.501	0.6	0.526	0.54	0.618					
Calu-6						0.821	0.877	0.95	0.888	0.845						0.987	0.938	0.755	0.822	0.776
